We go through three compounds from US6863897B2, “Stabilization of resorcinol derivatives in cosmetic compositions” (Unilever Home & Personal Care USA, division of Conopco, Inc., priority 2002, dated 2005).

This data set can be described thus: Storage color stability of resorcinol formulations with and without micronized TiO2 (chromameter CIE L*). The arrangement: key: difference in CIE L* (lightness) values, with TiO2 minus without. As to conditions: 45° C. oven, glass amber jars, 0.2% micronized TiO2 (MT-100Z), resorcinol content 2.17 milli-M. It counts as physicochemical. The procedure:
In this experiment, the storage stability in terms of color change of resorcinol derivatives time was measured with and without the presence of metal oxides.
The color stabilization of formulations of containing 4-substituted resorcinol derivatives by TiO2 was assessed by measuring the chromameter L* value (Luminance, or lightness) of the different formulations over time. A decrease in L* over time represents a darkening of the formulations as color develops from the white starting formulation due to decomposition of the resorcinol derivative. In Table 5 below, the ΔL value between formulations with and without TiO2 indicates the magnitude of color difference between the comparative samples. […] Thus, one can see that TiO2 has a large color-stabilizing effect, particularly on the formulations containing 4-substituted resorcinols.
The cosmetic compositions of Examples 5 to 8 in the Table above were stored and tested for stability in terms of discoloration. The resorcinol and 4-substituted resorcinol derivatives in these examples had equal molar content, i.e., 2.17 milli-M. A comparative composition, example 8, was made by eliminating resorcinol or its derivatives from the compositions of examples 5 to 8. The product formulations were stored for 56 days in glass amber jars of 120 ml volume in an oven at 45° C.
Procedure for Measuring CIE L*a*b* Color of Cosmetic Formulations
A film is created by applying a composition evenly to an UV-Transparent quartz plate (4″×4⅛″×⅛″) with a spatula. An 8-path wet film applicator from Paul Gardner Company, Inc. with a 3″ path width is used. The applicator is manually drawn across the plate for a […] thickness.
The plate is flipped over with the thin film facing the bench top and suspended 1½″ above a black benchtop (L*a*b* reading of the benchtop is L*=27.5, a*=0.5, b*=−0.6). Then a hand held Minolta CR10 chromameter is calibrated on a white Calibration Color tile (L 98.2, a 0.2, b 1.2). The chromameter is then placed on the top of the plate and three readings of the Commission Internationale de l'Eclairage (CIE) L*a*b* color system are taken. • L*=Black to white (luminance) from 0 to 100 [L*=0 represents Black] • a*=green to red from −60 to +60 • b*=blue to yellow from −60 to +60
The formulation thin film L* values were used in the present analysis. For each data collection the average value for the three readings was used at 0, 14, 28, and 56 days.

For `CCCCCCc1ccc(O)cc1O` [4-Hexyl resorcinol, 4-hexyl resorcinol], the “Base-adjusted ΔL with TiO2 - ΔL without TiO2 for the resorcinol formulations” value is given as 0 (storage time 0 day), 7.7 (storage time 14 days), 0.1 (storage time 28 days) and 3.7 (storage time 56 days).

For the compound `Oc1cccc(O)c1` [Resorcinol], the “Base-adjusted ΔL with TiO2 - ΔL without TiO2 for the resorcinol formulations” value (storage time 0 day) was determined as 0, the “Base-adjusted ΔL with TiO2 - ΔL without TiO2 for the resorcinol formulations” value (storage time 14 days) was found to be 0.9, the “Base-adjusted ΔL with TiO2 - ΔL without TiO2 for the resorcinol formulations” value (storage time 28 days) was −2 and the “Base-adjusted ΔL with TiO2 - ΔL without TiO2 for the resorcinol formulations” value (storage time 56 days) was determined as 1.1.

As for `CCc1ccc(O)cc1O` [4-Ethyl resorcinol, 4-ethyl resorcinol], the “Base-adjusted ΔL with TiO2 - ΔL without TiO2 for the resorcinol formulations” value turned out to be 0 (storage time 0 day), 12.0 (storage time 14 days), 4.6 (storage time 28 days) and 7.6 (storage time 56 days).
